The values below come from patent US9206232B2, “Organic compounds and their uses” (Novartis AG, priority 2009, dated 2015).

Assay [1] deals with HCV NS3-4A serine protease (full-length NS3-4A protein) (Hepatitis C virus genotype 1a (isolate 1) (HCV), UniProt P26664). As to the kind of experiment: HCV NS3-4A protease assay. The settings on record: genotype 1a strain HCV-1, fluorogenic peptide substrate, read-out: Protease assay Ex. 12 IC50. Format: biochemical, HCV genotype 1a. The method, then: The inhibitory activity of certain compounds of Table A against HCV NS3-4A serine protease is determined in a homogenous assay using the full-length NS3-4A protein (genotype 1a, strain HCV-1) and a commercially available internally-quenched fluorogenic peptide substrate as described by Taliani, M., et al. 1996 Anal. Biochem. 240:60-67, which is incorporated by reference in its entirety.
Chain of HCV NS3-4A serine protease (full-length NS3-4A protein) (P26664 1027-1657): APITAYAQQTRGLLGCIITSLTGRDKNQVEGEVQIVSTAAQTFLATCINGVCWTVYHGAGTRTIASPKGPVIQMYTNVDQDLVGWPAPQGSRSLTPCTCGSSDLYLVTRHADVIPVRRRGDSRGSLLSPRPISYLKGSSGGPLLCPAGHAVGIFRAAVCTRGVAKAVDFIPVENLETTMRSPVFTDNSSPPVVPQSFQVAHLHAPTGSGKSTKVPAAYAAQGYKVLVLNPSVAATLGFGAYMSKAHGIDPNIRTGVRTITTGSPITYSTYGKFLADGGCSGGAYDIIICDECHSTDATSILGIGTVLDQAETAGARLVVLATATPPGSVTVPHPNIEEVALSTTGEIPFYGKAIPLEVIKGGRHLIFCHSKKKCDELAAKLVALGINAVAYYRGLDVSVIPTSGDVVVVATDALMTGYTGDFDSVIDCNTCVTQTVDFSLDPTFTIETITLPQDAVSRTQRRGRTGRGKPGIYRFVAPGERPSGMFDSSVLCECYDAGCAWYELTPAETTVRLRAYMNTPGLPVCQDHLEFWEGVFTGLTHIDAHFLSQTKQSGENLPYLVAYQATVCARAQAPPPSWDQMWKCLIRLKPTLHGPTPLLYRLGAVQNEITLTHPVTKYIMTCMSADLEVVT
Chain of HCV NS3-4A serine protease (full-length NS3-4A protein) (P26664 1658-1711 partner): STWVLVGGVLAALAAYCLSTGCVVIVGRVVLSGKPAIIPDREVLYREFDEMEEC

A further assay concerns HCV. The conditions noted are these: ribavirin alone; cited from earlier work.

Usually IC50 stands for the concentration needed to halve the response being measured.

Consider `[2H]C([2H])([2H])C([2H])(N1CCCC[C@H]1C(=O)NC(C(=O)N[C@H](C(=O)N1C[C@]2(C[C@H]1C(=O)N[C@]1(C(=O)NS(=O)(=O)N3CCCC3)C[C@H]1C=C)C(C)(C)C21CCC1)C(C)(C)C)C1CCCCC1)C([2H])([2H])[2H]` (some centres unmarked) [Compound 145], for which, in assay [1], the IC50 was found to be 5.9 nM.

Turning to `C=C[C@@H]1C[C@]1(NC(=O)[C@@H]1C[C@@]2(CN1C(=O)[C@@H](NC(=O)[C@@H](NC(=O)[C@@H]1Cc3[nH]cnc3CN1)C(C)(C)C)C(C)(C)C)C(C)(C)C21CCC1)C(=O)NS(=O)(=O)N1CCCC1` [Example 29, (5R,8S)-7-[(2S)-2-{[(2S)-3,3-dimethyl-2-{[(6S)-4,5,6,7-tetrahydro-1H-imidazo[4,5-c]pyridin-6-ylcarbonyl]amino}butanoyl]amino}-3,3-dimethylbutanoyl]-10,10-dimethyl-N-{(1 R,2S)-1-[(pyrrolidin-1-ylsulfonyl)carbamoyl]-2-vinylcyclopropyl}-7-azadispiro[3.0.4.1]decane-8-carboxamide], in assay [1], the concentration for half-maximal inhibition (IC50) was 40 nM.

Consider `C=C[C@@H]1C[C@]1(NC(=O)[C@@H]1C[C@@]2(CN1C(=O)[C@@H](NC(=O)[C@@H](NC(=O)[C@@H]1CCCCN1C(C)C)C1CCCCC1)C1CCCC1)C(C)(C)C21CCC1)C(=O)NS(=O)(=O)N1CCCC1` [Example 66, (5R,8S)-7-[(2S)-2-{[(2S)-2-cyclohexyl-2-({[(2S)-1-isopropylpiperidin-2-yl]carbonyl}amino)acetyl]amino}-2-cyclopentylacetyl]-10,10-dimethyl-N-{(1R,2S)-1-[(pyrrolidin-1-ylsulfonyl)carbamoyl]-2-vinylcyclopropyl}-7-azadispiro[3.0.4.1]decane-8-carboxamide], for which, in assay [1], the half-maximal inhibitory concentration (IC50) amounted to 5.5 nM.

Take `NC(=O)c1ncn([C@@H]2O[C@H](CO)[C@@H](O)[C@H]2O)n1` [Ribavirin, ribavirin]: in the assay on HCV, the “effect on serum levels of HCV-RNA” value was “does not lower serum levels of HCV-RNA” and the “patients with serum amino transferase levels reduced to normal” value was 40 % of patients.
